Results from ChEMBL document CHEMBL1134068, “Thiazole analogues of the NSAID indomethacin as selective COX-2 inhibitors” (Bioorg Med Chem Lett, 2001).

Assays:
[1] = target: T1, Prostaglandin G/H synthase 1 (Homo sapiens, UniProt P23219); assay: Percent inhibition at 10 uM concentration against human recombinant Prostaglandin G/H synthase 1 cloned and expressed in baculovirus
[2] = target: T2, Prostaglandin G/H synthase 2 (Homo sapiens) (UniProt P35354); assay: Percent inhibition at 100 nM concentration against human recombinant Prostaglandin G/H synthase 2 cloned and expressed in baculovirus (Sf9)
T2 sequence (whole entry): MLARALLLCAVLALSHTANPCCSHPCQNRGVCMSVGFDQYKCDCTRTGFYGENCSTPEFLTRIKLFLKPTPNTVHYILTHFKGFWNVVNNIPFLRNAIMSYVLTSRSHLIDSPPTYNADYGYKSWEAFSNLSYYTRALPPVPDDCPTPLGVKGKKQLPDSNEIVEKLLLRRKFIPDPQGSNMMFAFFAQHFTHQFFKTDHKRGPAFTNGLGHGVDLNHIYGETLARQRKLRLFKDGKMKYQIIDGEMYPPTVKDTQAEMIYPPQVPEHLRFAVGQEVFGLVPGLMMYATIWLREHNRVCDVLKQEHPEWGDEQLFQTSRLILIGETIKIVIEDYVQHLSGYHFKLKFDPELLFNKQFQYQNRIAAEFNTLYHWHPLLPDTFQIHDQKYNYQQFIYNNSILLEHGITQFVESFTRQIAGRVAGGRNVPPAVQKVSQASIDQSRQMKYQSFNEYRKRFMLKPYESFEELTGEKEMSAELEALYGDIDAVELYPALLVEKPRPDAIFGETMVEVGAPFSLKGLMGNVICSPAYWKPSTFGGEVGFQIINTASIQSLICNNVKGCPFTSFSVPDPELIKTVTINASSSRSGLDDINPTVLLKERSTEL

[3] = target: T3, Prostaglandin G/H synthase 2 (Homo sapiens, UniProt P35354); assay: biochemical
T3 sequence (P35354 whole entry): T2 sequence (whole entry)
Description: Inhibitory concentration against human recombinant Prostaglandin G/H synthase 2 cloned and expressed in baculovirus (Sf9)

[4] = target: T1, Prostaglandin G/H synthase 1; assay: Percent inhibition at 10 uM concentration against human recombinant Prostaglandin G/H synthase 1 cloned and expressed in baculovirus (Sf9)
[5] = target: T1, Prostaglandin G/H synthase 1; assay: Inhibitory concentration against human recombinant Prostaglandin G/H synthase 1 cloned and expressed in baculovirus (Sf9)

T1 sequence (P23219 whole entry): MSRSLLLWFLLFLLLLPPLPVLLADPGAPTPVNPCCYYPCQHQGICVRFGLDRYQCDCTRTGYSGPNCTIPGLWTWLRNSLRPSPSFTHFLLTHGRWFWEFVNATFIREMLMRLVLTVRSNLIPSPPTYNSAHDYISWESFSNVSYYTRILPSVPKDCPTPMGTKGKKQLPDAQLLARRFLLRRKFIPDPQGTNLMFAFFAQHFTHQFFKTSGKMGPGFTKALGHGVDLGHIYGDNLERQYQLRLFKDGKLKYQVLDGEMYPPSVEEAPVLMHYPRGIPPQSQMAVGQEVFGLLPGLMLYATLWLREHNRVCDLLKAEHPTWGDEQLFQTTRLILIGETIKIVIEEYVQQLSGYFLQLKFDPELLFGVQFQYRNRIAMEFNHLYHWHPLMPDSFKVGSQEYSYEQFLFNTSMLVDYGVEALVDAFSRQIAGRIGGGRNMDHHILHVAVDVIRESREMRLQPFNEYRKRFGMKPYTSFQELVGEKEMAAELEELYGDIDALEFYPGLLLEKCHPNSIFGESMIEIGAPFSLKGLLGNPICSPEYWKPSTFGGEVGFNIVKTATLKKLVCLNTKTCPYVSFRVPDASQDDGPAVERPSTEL

Compound | inhibition [1] [%] | inhibition [2] [%] | IC50 [3] [µM] | inhibition [4] [%] | IC50 [5] [µM]
COc1ccc2c(c1)c(Cc1nc(-c3cccc(Br)c3)cs1)c(C)n2C(=O)c1ccc(Cl)cc1 | 18 | – | – | – | –
COc1ccc2c(c1)c(Cc1nc(-c3ccc(C(=O)O)cc3)cs1)c(C)n2C(=O)c1ccc(Br)cc1 | 40 | 10 | – | – | –
CCN(CC)c1ccc(-c2csc(Cc3c(C)n(C(=O)c4ccc(Cl)cc4)c4ccc(OC)cc34)n2)cc1 | 23 | 36 | – | – | –
Cc1c(Cc2nc(-c3ccc([N+](=O)[O-])cc3)cs2)c2cc(F)ccc2n1C(=O)c1ccc(Br)cc1 | 1 | 40 | – | – | –
COc1ccc2c(c1)c(Cc1nc(-c3ccc(Cl)cc3)cs1)c(C)n2C(=O)c1ccc(Br)cc1 | 2 | – | 0.007 | – | –
COc1ccc2c(c1)c(Cc1nc(-c3csc4ccccc34)cs1)c(C)n2C(=O)c1ccc(Cl)cc1 | 20 | – | – | – | –
COc1ccc2c(c1)c(Cc1csc(NC(=O)CN)n1)c(C)n2C(=O)c1ccc(Cl)cc1 | 27 | 4 | – | – | –
COc1ccc2c(c1)c(Cc1nc(-c3cccc([N+](=O)[O-])c3)cs1)c(C)n2C(=O)c1ccc(Cl)cc1 | 35 | 85 | – | – | –
COc1ccc2c(c1)c(Cc1csc(-c3ccncc3)n1)c(C)n2C(=O)c1ccc(Cl)cc1 | 57 | 75 | – | – | –
Cc1c(Cc2nc(-c3ccc(Br)cc3)cs2)c2cc(F)ccc2n1C(=O)c1ccc(Br)cc1 | 0 | 25 | – | – | –
COc1ccc2c(c1)c(Cc1nc(-c3ccc(S(C)(=O)=O)cc3)cs1)c(C)n2C(=O)c1ccc(Cl)cc1 | 15 | 33 | – | – | –
COc1ccc2c(c1)c(Cc1nc(-c3ccc(Cl)cc3)cs1)c(C)n2C(=O)c1ccc(Cl)cc1 | – | – | – | 16 | –
Cc1c(Cc2nc(-c3ccc(Cl)cc3)cs2)c2cc(F)ccc2n1C(=O)c1ccc(Br)cc1 | 7 | 37 | – | – | –
Cc1c(Cc2nc(-c3ccc(Cl)cc3)cs2)c2cc(Br)ccc2n1C(=O)c1ccc(Br)cc1 | 4 | 9 | – | – | –
COc1ccc2c(c1)c(Cc1nc(-c3ccc(-c4ccccc4)cc3)cs1)c(C)n2C(=O)c1ccc(Cl)cc1 | – | 21 | – | 13 | –
COc1ccc2c(c1)c(Cc1nc(-c3ccc(C(=O)O)cc3)cs1)c(C)n2C(=O)c1ccc(Cl)cc1 | 35 | – | 0.12 | – | –
COc1ccc2c(c1)c(Cc1nc(C(C)C)cs1)c(C)n2C(=O)c1ccc(Cl)cc1 | 36 | 1 | – | – | –

Compound | inhibition [1] [%] | inhibition [2] [%] | IC50 [3] [µM] | inhibition [4] [%] | IC50 [5] [µM]
COc1ccc2c(c1)c(Cc1csc(-c3ccc(Cl)cc3)n1)c(C)n2C(=O)c1ccc(Cl)cc1 | 18 | 16 | – | – | –
COc1ccc2c(c1)c(Cc1nc(-c3ccc(F)cc3)cs1)c(C)n2C(=O)c1ccc(Cl)cc1 | – | – | – | 28 | –
COc1ccc2c(c1)c(Cc1csc(NC(=O)c3ccncc3)n1)c(C)n2C(=O)c1ccc(Cl)cc1 | 0 | 45 | – | – | –
COc1ccc2c(c1)c(Cc1csc(-c3ccccc3Cl)n1)c(C)n2C(=O)c1ccc(Cl)cc1 | 24 | 42 | – | – | –
COc1ccc2c(c1)c(Cc1nc(C34C[C@H]5C[C@@H](C3)C[C@@H](C4)C5)cs1)c(C)n2C(=O)c1ccc(Cl)cc1 | 13 | 6 | – | – | –
COc1ccc2c(c1)c(Cc1nc(-c3ccc(Br)cc3)cs1)c(C)n2C(=O)c1ccc(Br)cc1 | 3 | – | 0.03 | – | –
COc1ccc2c(c1)c(Cc1nc(-c3ccc(F)cc3F)cs1)c(C)n2C(=O)c1ccc(Cl)cc1 | 12 | 75 | – | – | –
COc1ccc2c(c1)c(Cc1nc(C(=O)O)cs1)c(C)n2C(=O)c1ccc(Cl)cc1 | 6 | 2 | – | – | –
COc1ccc2c(c1)c(Cc1nc(-c3ccc4ccccc4c3)cs1)c(C)n2C(=O)c1ccc(Cl)cc1 | 11 | – | – | – | –
CCOC(=O)c1csc(Cc2c(C)n(C(=O)c3ccc(Cl)cc3)c3ccc(OC)cc23)n1 | 1 | 40 | – | – | –
COc1ccc2c(c1)c(Cc1csc(N)n1)c(C)n2C(=O)c1ccc(Cl)cc1 | – | – | 0.39 | – | 15500
COc1ccc2c(c1)c(Cc1csc(-c3cccnc3)n1)c(C)n2C(=O)c1ccc(Cl)cc1 | 47 | 20 | – | – | –
Cc1c(Cc2nc(-c3ccc(Br)cc3)cs2)c2cc(Br)ccc2n1C(=O)c1ccc(Br)cc1 | 13 | 7 | – | – | –
COc1ccc2c(c1)c(Cc1nc(-c3ccc(Br)cc3)cs1)c(C)n2C(=O)c1ccc(Cl)cc1 | – | – | – | 27 | –
COc1ccc2c(c1)c(Cc1nc(-c3ccc([N+](=O)[O-])cc3)cs1)c(C)n2C(=O)c1ccc(Cl)cc1 | – | – | – | 17 | –
Cc1c(Cc2nc(-c3ccc([N+](=O)[O-])cc3)cs2)c2cc(Br)ccc2n1C(=O)c1ccc(Br)cc1 | 1 | 7 | – | – | –
COc1ccc2c(c1)c(Cc1nc(-c3ccc([N+](=O)[O-])cc3)cs1)c(C)n2C(=O)c1ccc(Br)cc1 | 9 | – | 0.007 | – | –
